Experimental data published in patent US20260042747A1, “KIT INHIBITORS, COMPOUNDS, PHARMACEUTICAL COMPOSITIONS, AND METHODS OF USE THEREOF” (Alivexis, Inc., priority 2022, published 2026).
Counter-ions that a name gives are not always drawn. Like-named read-outs stand apart in the source and are kept apart here.

What was measured:
[1] = biological target: recombinant human KIT tyrosine kinase protein (Homo sapiens (Human), UniProt P10721); experiment: KIT tyrosine kinase assay (ADP-Glo); format: biochemical
Chain of recombinant human KIT tyrosine kinase protein (P10721 546-976): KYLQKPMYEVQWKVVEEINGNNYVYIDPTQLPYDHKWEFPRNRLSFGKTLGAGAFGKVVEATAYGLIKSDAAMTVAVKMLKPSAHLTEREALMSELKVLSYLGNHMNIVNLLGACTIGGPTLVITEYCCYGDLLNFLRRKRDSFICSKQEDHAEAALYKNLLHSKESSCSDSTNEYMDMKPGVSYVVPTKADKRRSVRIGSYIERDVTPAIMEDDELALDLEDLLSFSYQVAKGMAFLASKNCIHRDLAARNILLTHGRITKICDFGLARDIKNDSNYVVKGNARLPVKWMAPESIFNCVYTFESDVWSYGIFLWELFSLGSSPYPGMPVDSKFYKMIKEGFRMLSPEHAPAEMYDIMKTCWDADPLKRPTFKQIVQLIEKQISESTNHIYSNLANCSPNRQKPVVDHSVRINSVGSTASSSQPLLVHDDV

GIST-T1 cells = experiment: GIST cell proliferation assay; format: cell-based, human; settings: read-out: GIST-T1 IC50
Text: Gastrointestinal stromal tumors (GIST) are the most common adult sarcomas and the majority (85-90%) of GIST cases are caused by oncogenic mutations in the receptor tyrosine kinases (RTKs), KIT or PDGFRA, which result in constitutive activation of these receptors. Human GIST-derived cell line GIST-Ti which harboring a mutation in exon 11 of KIT was used for the measurement of inhibitory potency of the compounds.
GIST-T1 cells were purchased from Cosmo Bio (Tokyo, Japan) and cultured in 10% FBS containing DMEM. The assay was performed in 96-well plates and the IC50 of each compound was determined by CellTiter Glo Assay reagent and Victor X5 Multilabel Counter. Cells were seeded at a density of 2000 cells/90 μL/well in 96-well plates. Compound dilution, cell treatment and determination of IC50 were performed as described in the assay methods of M-07e Cell Proliferation Assay.

M-07e cells = experiment: SCF-dependent M-07e cell proliferation assay; format: cell-based, human; settings: read-out: M-07e IC50
[2] = Homo sapiens, GISTT1, 72 h, GIST-T1 cells (mutation in exon 11 of KIT), CellTiter Glo, 3 days
[3] = Homo sapiens, M-07e, 72 h, SCF-dependent M-07e cell proliferation, 3 days, CellTiter Glo

Compound	IC50 ([1]; Table 98)	IC50 (M-07e cells; Homo sapiens, M-07e, 72 h)	other results
O=C(NCc1ccc(Oc2cccc(F)c2)nc1)c1ccc2[nH]c(=O)[nH]c2c1 [Example 30]	67 nM		IC50 (GIST-T1 cells; Homo sapiens, GISTT1, 72 h): 67 nM
CC(C)n1c(=O)[nH]c2cc(C(=O)NCc3ccc(Oc4ccc(F)cc4)nc3)ccc21 [Compound 2, N-((6-(4-Fluorophenoxy)pyridin-3-yl)methyl)-1-isopropyl-2-oxo-2,3-dihydro-1H-benzim idazole-5-carboxamide]	450 nM		IC50 (GIST-T1 cells; [2]): 450 nM
O=C(NCc1ccc(Oc2ccc(Cl)cc2)nc1)c1ccc2[nH]c(=O)[nH]c2c1 [Example 31]	70 nM		IC50 (GIST-T1 cells; Homo sapiens, GISTT1, 72 h): 70 nM
O=C(NCc1ccc(C(F)(F)F)nc1)c1ccc2[nH]c(=O)[nH]c2c1 [Example 28]	3600 nM		IC50 (GIST-T1 cells; [2]): 3600 nM
O=C(NCc1ccc(Oc2ccccc2F)nc1)c1ccc2[nH]c(=O)[nH]c2c1 [Example 32]	29 nM		IC50 (GIST-T1 cells; [2]): 29 nM
Cn1c(=O)[nH]c2cc(C(=O)NCc3ccc(Oc4cccc(F)c4)nc3)ccc21 [Example 33]	78 nM		IC50 (GIST-T1 cells; [2]): 78 nM
Cn1c(=O)[nH]c2cc(C(=O)NCc3ccc(Oc4ccccc4F)nc3)ccc21 [Compound 1, N-((6-(2-Fluorophenoxy)pyridin-3-yl)methyl)-1-methyl-2-oxo-2,3-dihydro-1H-benzimid azole-5-carboxamide]	57 nM		IC50 (GIST-T1 cells; [2]): 57 nM
Cn1c(=O)[nH]c2cc(C(=O)NCc3ccc(Oc4ccc(Cl)cc4)nc3)ccc21 [compound 34]	58 nM		IC50 (GIST-T1 cells; GIST-T1 cells (mutation in exon 11 of KIT), CellTiter Glo, 3 days): 58 nM
O=C(NCc1ccc(Oc2ccc(F)cc2)nc1)c1ccc2[nH]c(=O)[nH]c2c1 [Example 29]	56 nM		IC50 (GIST-T1 cells; [2]): 56 nM
CCn1c(=O)[nH]c2cc(C(=O)NCc3ccc(Oc4ccc(F)cc4)nc3)ccc21 [Example 35]	83 nM		IC50 (GIST-T1 cells; Homo sapiens, GISTT1, 72 h): 83 nM
CN(Cc1ccccc1F)c1ccc(CNC(=O)c2ccc3c(c2)[nH]c(=O)n3C)cn1 [Example 74]	25 nM	110 nM	
CN(CC1CCCCO1)c1ccc(CNC(=O)c2ccc3c(c2)[nH]c(=O)n3C)cn1 (centres unmarked) [Example 71]	60 nM	310 nM	
C[C@H]1CCCN1c1ccc(CNC(=O)c2ccc3c(c2)[nH]c(=O)n3C)cn1 [Compound 14, (S)-1-Methyl-N-((6-(2-methylpyrrolidin-1-yl)pyridin-3-yl)methyl)-2-oxo-2,3-dihydro-1H-benzimidazole-5-carboxamide]	63 nM		IC50 (M-07e cells; [3]): 560 nM
CN(c1ccc2c(c1)COC2)c1ccc(CNC(=O)c2ccc3c(c2)[nH]c(=O)n3C)cn1 [Example 119]		423 nM	IC50 ([1]; Table 99): 40 nM
CC(c1ccccc1)N(C)c1ccc(CNC(=O)c2ccc3c(c2)[nH]c(=O)n3C)cn1 (single isomer, unassigned) [82 Peak 1]	180 nM		IC50 (M-07e cells; SCF-dependent M-07e cell proliferation, 3 days, CellTiter Glo): 6300 nM
CN(c1ncc(CNC(=O)c2ccc3c(c2)[nH]c(=O)n3C)s1)C1CCC(F)(F)CC1 [Example 90]	48 nM	1800 nM	
CN(c1ccc(CNC(=O)c2cc3[nH]c(=O)[nH]c3cc2F)cn1)C1CCC(F)(F)CC1 [Example 135]			IC50 ([1]; Table 99): 30 nM; IC50 (M-07e cells; [3]): 589 nM
CN(c1ccc(CNC(=O)c2ccc3c(c2)[nH]c(=O)n3C)cn1)[C@@H]1CC[C@H](F)C1 [Example 134]		62 nM	IC50 ([1]; Table 99): 38 nM
CN(CC1CC(F)(F)C1)c1ccc(CNC(=O)c2ccc3c(c2)[nH]c(=O)n3C)cn1 [Example 68]	42 nM	130 nM	

Compound	IC50 ([1]; Table 98)	IC50 (M-07e cells; Homo sapiens, M-07e, 72 h)	other results
CC(C1CC1)N(C)c1ccc(CNC(=O)c2ccc3c(c2)[nH]c(=O)n3C)cn1 (centres unmarked) [Example 83]	41 nM	300 nM	
CN(c1ccc(CNC(=O)c2ccc3c(c2)[nH]c(=O)n3C)cn1)C1CC2(COC2)C1 [Example 121]		1350 nM	IC50 ([1]; Table 99): 59 nM
CN(c1ccc(CNC(=O)c2cc(F)c3[nH]c(=O)[nH]c3c2)cn1)C1CC(F)(F)C1 [Example 144]			IC50 ([1]; Table 99): 57 nM; IC50 (M-07e cells; [3]): 3560 nM
Cn1c(=O)[nH]c2cc(C(=O)NCc3ccc(Oc4ccccc4F)nc3)c(F)cc21 [Compound 3, 6-Fluoro-N-((6-(2-fluorophenoxy)pyridin-3-yl)methyl)-1-methyl-2-oxo-2,3-dihydro-1H-benzimidazole-5-carboxamide trifluoroacetate]	26 nM		IC50 (M-07e cells; [3]): 180 nM
CC(C)N1CCc2cc(CNC(=O)c3ccc4c(c3)[nH]c(=O)n4C)cnc21 [Compound 17, N-((1-Isopropyl-2,3-dihydro-1H-pyrrolo[2,3-b]pyridin-5-yl)methyl)-1-methyl-2-oxo-2,3-dihydro-1H-benzimidazole-5-carboxamide]	22 nM		IC50 (M-07e cells; [3]): 390 nM
CN(c1ccc(CNC(=O)c2ccc3c([nH]c(=O)n3C)c2F)cn1)C1CCC(F)(F)C1 (centres unmarked) [Example 147]			IC50 ([1]; Table 99): 23 nM; IC50 (M-07e cells; [3]): 440 nM
CN(c1ccc(CNC(=O)c2ccc3c(c2)[nH]c(=O)n3C)cn1)C12CC(C)(C1)C2 [Example 78]	26 nM	150 nM	
CN(c1ccc(CNC(=O)c2ccc3c(c2)[nH]c(=O)n3C)cn1)c1ccc(F)cc1F [Example 62]	170 nM	290 nM	
CN(c1ccc(CNC(=O)c2ccc3c(c2)[nH]c(=O)n3C)cn1)[C@@H]1CCC(F)(F)C1 [Example 122]		14 nM	IC50 ([1]; Table 99): 32 nM
CN(c1ccc(CNC(=O)c2cc3[nH]c(=O)[nH]c3cc2F)cn1)[C@H]1C[C@@H](C(F)(F)F)C1 [Example 137]			IC50 ([1]; Table 99): 23 nM; IC50 (M-07e cells; [3]): 36 nM
Cn1c(=O)[nH]c2cc(C(=O)NCc3ccc(Oc4ccc(Cl)cc4F)nc3)ccc21 [Example 39]	35 nM	140 nM	
CN(c1ccc(F)cc1)c1ccc(CNC(=O)c2ccc3c(c2)[nH]c(=O)n3C)cn1 [Compound 9, N-((6-((4-Fluorophenyl)(methyl)amino)pyridin-3-yl)methyl)-1-methyl-2-oxo-2,3-dihydro-1H-benzimidazole-5-carboxamide trifluoroacetate]	34 nM		IC50 (M-07e cells; [3]): 610 nM
CN(CC1CCC(F)(F)CC1)c1ncc(CNC(=O)c2ccc3c(c2)[nH]c(=O)n3C)s1 [Example 92]	59 nM	1900 nM	
CC(N(C)c1ccc(CNC(=O)c2ccc3c(c2)[nH]c(=O)n3C)cn1)C(F)(F)F (centres unmarked) [Example 86]	15 nM	120 nM	
CN(c1ccc(CNC(=O)c2ccc3c(c2)[nH]c(=O)n3C)cn1)C1CC2C(C1)C2(F)F (centres unmarked) [Example 108, N-((6-((6,6-Difluorobicyclo[3.1.0]hexan-3-yl)(methyl)amino)pyridin-3-yl)methyl)-1-met hyl-2-oxo-2,3-dihydro-1H-benzimidazole-5-carboxamide]			IC50 ([1]; Table 99): 22 nM; IC50 (M-07e cells; [3]): 65 nM
C[C@H]1CCCN1c1cnc(CNC(=O)c2ccc3c(c2)[nH]c(=O)n3C)cn1 [Example 98]	71 nM	990 nM	
Cn1c(=O)[nH]c2cc(C(=O)NCc3cnc4c(c3)CCN4c3c(F)cccc3F)ccc21 [Example 102]		270 nM	IC50 ([1]; Table 99): 55 nM
CN(c1ccc(CNC(=O)c2cc3[nH]c(=O)n(C)c3cc2F)cn1)C1CCC(F)(F)CC1 [Example 115, N-((6-((4,4-Difluorocyclohexyl)(methyl)amino)pyridin-3-yl)methyl)-6-fluoro-1-methyl-2-oxo-2,3-dihydro-1H-benzimidazole-5-carboxamide]			IC50 ([1]; Table 99): 21 nM; IC50 (M-07e cells; [3]): 70 nM
